Data: the supplement of paper PMC9386025

system: Kuramochi; experiment: drug sensitivity score (DSS) (DSS (dimensionless)); higher = more sensitive (stronger drug response); conditions: genetic perturbation: DOX-induced control shRNA
Summary of the method: (§1)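 Drugs were pre-plated in 384-well plates at five concentrations covering a 10,000-fold range, and 1 000 – 1 500 cells per well were added from patient-derived cultures or from ovarian cancer cell lines whose shRNA had been induced with 100 ng/ml doxycycline for three days or longer. Incubation lasted three days at 37 °C under 5.0 % CO2. A PHERAstar FS then recorded CellTiter-Glo luminescence as the readout of viability. A drug sensitivity score, calculated as described before, summarised the dose-response curve of every drug.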

Compound	drug sensitivity score
CC[C@H](CC#N)OC(=O)N[C@@H](C)c1cccc(NC(=O)Nc2ccc(-c3cnco3)c(OC)c2)c1 [AVN944]	8.9
Cc1[nH]nc(C(F)(F)F)c1Cc1sc2c(c1C(=O)N1C[C@](C)(O)CO1)c(=O)n(C)c(=O)n2C(C)C [AZD3965]	3.4
NC(=O)Nc1cc(-c2cccc(F)c2)sc1C(=O)N[C@H]1CCCNC1 [AZD7762]	2.9
COc1ccc(-c2ccc3c(N4CCOC[C@@H]4C)nc(N4CCOC[C@@H]4C)nc3n2)cc1CO [AZD8055]	16.8
Cc1ncc(-c2ccnc(Nc3ccc(S(C)(=O)=O)cc3)n2)n1C(C)C [AZD-5438]	7.8
CN(C)Cc1c(C(=O)NCCOc2ccc(C(=O)NO)cc2)oc2ccccc12 [Abexinostat]	8.6
CN(C)C/C=C/C(=O)Nc1cc2c(Nc3ccc(F)c(Cl)c3)ncnc2cc1O[C@H]1CCOC1 [Afatinib]	1.5
COc1cccc2c1C(=O)c1c(O)c3c(c(O)c1C2=O)C[C@@](O)(/C(CO)=N/NC(=O)CCCCCN1C(=O)C=CC1=O)C[C@@H]3O[C@H]1C[C@H](N)[C@H](O)[C@H](C)O1 [Aldoxorubicin]	4.9
COc1cc(Nc2ncc3c(n2)-c2ccc(Cl)cc2C(c2c(F)cccc2OC)=NC3)ccc1C(=O)O [Alisertib]	4.2
CN1CC[C@H](c2c(O)cc(O)c3c(=O)cc(-c4ccccc4Cl)oc23)[C@H](O)C1 [Alvocidib]	14.8
CCN(CC)CCNC(=O)c1c(C)[nH]c(/C=C2\C(=O)Nc3ccc(-c4csc(-c5ccccc5)n4)cc32)c1C [Amcasertib]	< 0
COc1cc(NS(C)(=O)=O)ccc1Nc1c2ccccc2nc2ccccc12 [Amsacrine]	1.4
O=C1CN2Cc3c(ccc(Cl)c3Cl)N=C2N1 [Anagrelide]	< 0
CC(=O)OC[C@H]1O[C@@H]([S-])[C@H](OC(C)=O)[C@@H](OC(C)=O)[C@@H]1OC(C)=O.CCP(CC)CC.[Au+] [Auranofin]	7.5
Nc1ncn([C@@H]2O[C@H](CO)[C@@H](O)[C@H]2O)c(=O)n1 [Azacitidine]	0.6

system: OVSAHO; experiment: as above; conditions: genetic perturbation: DOX-induced PTK7 shRNA knockdown
Summary of the method: as §1

Compound	drug sensitivity score
CC[C@H](CC#N)OC(=O)N[C@@H](C)c1cccc(NC(=O)Nc2ccc(-c3cnco3)c(OC)c2)c1 [AVN944]	11.7
Cc1[nH]nc(C(F)(F)F)c1Cc1sc2c(c1C(=O)N1C[C@](C)(O)CO1)c(=O)n(C)c(=O)n2C(C)C [AZD3965]	12.1
NC(=O)Nc1cc(-c2cccc(F)c2)sc1C(=O)N[C@H]1CCCNC1 [AZD7762]	6.4
COc1ccc(-c2ccc3c(N4CCOC[C@@H]4C)nc(N4CCOC[C@@H]4C)nc3n2)cc1CO [AZD8055]	20.7
Cc1ncc(-c2ccnc(Nc3ccc(S(C)(=O)=O)cc3)n2)n1C(C)C [AZD-5438]	8.2
CN(C)Cc1c(C(=O)NCCOc2ccc(C(=O)NO)cc2)oc2ccccc12 [Abexinostat]	14.6
CN(C)C/C=C/C(=O)Nc1cc2c(Nc3ccc(F)c(Cl)c3)ncnc2cc1O[C@H]1CCOC1 [Afatinib]	1.9
COc1cccc2c1C(=O)c1c(O)c3c(c(O)c1C2=O)C[C@@](O)(/C(CO)=N/NC(=O)CCCCCN1C(=O)C=CC1=O)C[C@@H]3O[C@H]1C[C@H](N)[C@H](O)[C@H](C)O1 [Aldoxorubicin]	7.9
COc1cc(Nc2ncc3c(n2)-c2ccc(Cl)cc2C(c2c(F)cccc2OC)=NC3)ccc1C(=O)O [Alisertib]	7
CN1CC[C@H](c2c(O)cc(O)c3c(=O)cc(-c4ccccc4Cl)oc23)[C@H](O)C1 [Alvocidib]	16.7
CCN(CC)CCNC(=O)c1c(C)[nH]c(/C=C2\C(=O)Nc3ccc(-c4csc(-c5ccccc5)n4)cc32)c1C [Amcasertib]	1.6
COc1cc(NS(C)(=O)=O)ccc1Nc1c2ccccc2nc2ccccc12 [Amsacrine]	5.3
O=C1CN2Cc3c(ccc(Cl)c3Cl)N=C2N1 [Anagrelide]	< 0
CC(=O)OC[C@H]1O[C@@H]([S-])[C@H](OC(C)=O)[C@@H](OC(C)=O)[C@@H]1OC(C)=O.CCP(CC)CC.[Au+] [Auranofin]	11
Nc1ncn([C@@H]2O[C@H](CO)[C@@H](O)[C@H]2O)c(=O)n1 [Azacitidine]	3.8

same assay, conditions: genetic perturbation: DOX-induced control shRNA

Compound	drug sensitivity score
CC[C@H](CC#N)OC(=O)N[C@@H](C)c1cccc(NC(=O)Nc2ccc(-c3cnco3)c(OC)c2)c1 [AVN944]	9.7
Cc1[nH]nc(C(F)(F)F)c1Cc1sc2c(c1C(=O)N1C[C@](C)(O)CO1)c(=O)n(C)c(=O)n2C(C)C [AZD3965]	< 0
NC(=O)Nc1cc(-c2cccc(F)c2)sc1C(=O)N[C@H]1CCCNC1 [AZD7762]	3.1
COc1ccc(-c2ccc3c(N4CCOC[C@@H]4C)nc(N4CCOC[C@@H]4C)nc3n2)cc1CO [AZD8055]	19
Cc1ncc(-c2ccnc(Nc3ccc(S(C)(=O)=O)cc3)n2)n1C(C)C [AZD-5438]	7
CN(C)Cc1c(C(=O)NCCOc2ccc(C(=O)NO)cc2)oc2ccccc12 [Abexinostat]	11.9
CN(C)C/C=C/C(=O)Nc1cc2c(Nc3ccc(F)c(Cl)c3)ncnc2cc1O[C@H]1CCOC1 [Afatinib]	1.9
COc1cccc2c1C(=O)c1c(O)c3c(c(O)c1C2=O)C[C@@](O)(/C(CO)=N/NC(=O)CCCCCN1C(=O)C=CC1=O)C[C@@H]3O[C@H]1C[C@H](N)[C@H](O)[C@H](C)O1 [Aldoxorubicin]	5.1
COc1cc(Nc2ncc3c(n2)-c2ccc(Cl)cc2C(c2c(F)cccc2OC)=NC3)ccc1C(=O)O [Alisertib]	2.4
CN1CC[C@H](c2c(O)cc(O)c3c(=O)cc(-c4ccccc4Cl)oc23)[C@H](O)C1 [Alvocidib]	14.7
CCN(CC)CCNC(=O)c1c(C)[nH]c(/C=C2\C(=O)Nc3ccc(-c4csc(-c5ccccc5)n4)cc32)c1C [Amcasertib]	0.8
COc1cc(NS(C)(=O)=O)ccc1Nc1c2ccccc2nc2ccccc12 [Amsacrine]	< 0
O=C1CN2Cc3c(ccc(Cl)c3Cl)N=C2N1 [Anagrelide]	< 0
CC(=O)OC[C@H]1O[C@@H]([S-])[C@H](OC(C)=O)[C@@H](OC(C)=O)[C@@H]1OC(C)=O.CCP(CC)CC.[Au+] [Auranofin]	5.6
Nc1ncn([C@@H]2O[C@H](CO)[C@@H](O)[C@H]2O)c(=O)n1 [Azacitidine]	< 0
